Reference: patent US20050164976A1, “Combination of a cdk inhibitor and 5-fu for the tratment of cancer” (Cyclacel Limited, priority 2002, published 2005)

Tests used:
HT29 cells [1] = experiment: activated caspase-3 assay; format: cell-based, human; settings: single agent, dose dependent
HT29 cells [2] = experiment: cells; settings: Homo sapiens, HT-29
Excerpt: Cells were washed in media to inactivate trypsin before reseeding or analysis.

MCF7 cells = experiment: cells; settings: Homo sapiens
Procedure: MCF7 cells were seeded at 3,000/well in 96 well plates. Cell were allowed to settle overnight, and medium replaced with drug-containing medium the next day. Nine different drug treatments were tested, in triplicate, in each plate.

[3] = test system: human mammary cancer xenograft MAXF 857; settings: 5FU alone at the concentrations used in the combination
Procedure: Cells were passed through sieves of 200 μm and 50 μm mesh size and washed twice with sterile PBS-buffer (Life Technologies). The percentage of viable cells was determined in a Neubauer-hemocytometer using trypan blue exclusion.
The clonogenic assay was performed in a 24-well format according to a modified two-layer soft agar assay introduced by Hamburger et al [Hamburger, A. W. & S. E. Salmon. […] The bottom layer consisted of 0.2 ml/well of Iscove's Modified Dulbecco's Medium (supplemented with 20% (v/v) fetal calf serum and 0.01% (v/v) gentamicin) and 0.75% (w/v) agar. 5·10^4 cells were added to 0.2 ml of the same culture medium supplemented with 0.4% (w/v) agar and plated in 24-multiwell dishes onto the bottom layer. Cytostatic drugs were applied by continuous exposure (drug overlay) in 0.2 ml culture medium 24 hours after seeding in the cells. Every dish included six control wells and drug-treated groups in triplicate at 6 concentrations. […] Cultures were incubated at 37° C. and 7.5% CO2 in a humidified atmosphere for 8-20 days and monitored closely for colony growth using an inverted microscope. Within this period, in vitro tumor growth led to the formation of colonies with a diameter of >50 μm. At the time of maximum colony formation, counts were performed with an automatic image analysis system (OMNICON FAS IV, Biosys GmbH). […]

HT29 cells [4] = settings: single agent; 40 μM roscovitine; 1 μM 5-FU
Procedure: HT29 cells were seeded and treated with drug in the same way as for the determination of cell cycle distribution. After 24 hours, media was replaced with that containing 10 μM BrdU and incubated for 30 minutes. Detached cells were harvested, plates were washed twice in PBS and adherent cells harvested by trypsinisation. Adherent and detached cells were pooled, washed in PBS, fixed in ice cold 70% v/v ethanol and stored at 4° C. Cells were washed twice in PBS+1% BSA and treated with 2M HCl for 20 minutes, followed by a further three washes in PBS. Cells were pelleted and 2 μl of anti-BrdU antibody (Pharmingen) added to the pellet. […] After incubation at room temperature protected from light for 20 minutes, samples were analysed by flow cytometry.
A Becton Dickinson LSR flow cytometer was used for these studies, in accordance with the manufacturers recommendations. […] Where used, activated caspase-3 and BrdU positive cells were designated as such on the basis of green fluorescence (530±28 nm), acquired on a logarithmic scale. Red fluorescence (575±26 nm) was acquired on a linear scale and pulse width analysis was used to exclude cell doublets and aggregates from the analysis. Cells with a DNA content of between 2n and 4n were designated as being in G1, S or G2/M phases of the cell cycle, as defined by the level of red fluorescence. […]

HT29 cells [5] = experiment: analysis of cell cycle distribution by flow cytometry; format: cell-based, human; settings: single agent, 48 hours; roscovitine 20 μM and 40 μM; 5-FU 0.5 μM and 1 μM; dose dependent

IC50 (HT29 cells [2]) [µM]	IC50 (MCF7 cells) [µM]	SMILES	activation of caspase-3 (HT29 cells [1])	effect on cell growth [3]	number of cells incorporating BrdU (HT29 cells [4]) [%]	effect on cell cycle distribution (HT29 cells [5])
1	8	O=c1[nH]cc(F)c(=O)[nH]1 [5-FU, 5-Fluorouracil]	albeit to a lesser extent	no effect on cell growth	64.3	accumulation of cells in S phase
		CC[C@H](CO)Nc1nc(NCc2ccccc2)c2ncn(C(C)C)c2n1 [roscovitine, 6-benzylamino-2-[(R)-1-ethyl-2-hydroxyethylamino]-9-isopropylpurine]	induces activation of caspase-3		3.8	accumulation of cells in G2/M
